These results are taken from patent US20260001928A1 (CORTERIA PHARMACEUTICALS, priority 2022, published 2026).

Data set [1] in a line: In vitro subcutaneous tissue supernatant (SCts) stability and metabolite identification, rat. The data set is classed as in vitro ADME. The settings on record: in vitro soft spot identification, rat SCts.
Data set [2] is described as follows: In vivo metabolite identification on rat plasma samples after SC administration. The settings on record: rat plasma after SC administration at 1 mg/kg. On the procedure: Software aided in vitro metabolite identification on SCts stability samples was performed using either Metabolite Pilot (Sciex) or Biopharma Finder (Thermo). In addition, metabolite identification using Metabolite Pilot was performed on plasma samples of Comp Y following SC administration to rat at 1 mg/kg.

A short description of data set [3]: Dog PLM. Conditions: 37° C., up to 2 hours.
Data set [4] is described as follows: Rat PLM. Conditions: male Sprague Dawley rats, 37° C., up to 2 hours.
The nature of data set [5]: Human PLM. Conditions: 37° C., up to 2 hours.
Data set [6] can be described thus: subcutaneous tissue supernatant (SCts). The settings on record: male Sprague Dawley rats, 37° C., up to 2 hours.

*1 amine or outer side, *2 acyl side, *3 side chain or, on linkers, in order; H or OH if unused. Where a SMILES comes first, the peptide text is derived from it. Side-chain parts run from the residue outwards. The star is where a group is joined. C18 diacid = O=C(O)CCCCCCCCCCCCCCCCC(=O)*; γGlu = O=C(O)[C@H](CCC(=O)[*:2])N[*:1]; AEEA = NCCOCCOCC(=O)O

On to `CC[C@H](C)[C@H](N)C(=O)N[C@H](C(=O)N[C@@H](CC(C)C)C(=O)N[C@@H](CO)C(=O)N[C@@H](CC(C)C)C(=O)N[C@@H](CC(=O)O)C(=O)N[C@H](C(=O)N1CCC[C@H]1C(=O)N[C@H](C(=O)N[C@@H](CCCCN)C(=O)N[C@@H](CC(C)C)C(=O)N[C@@H](CCCCNC(=O)COCCOCCNC(=O)COCCOCCNC(=O)CC[C@H](NC(=O)CCCCCCCCCCCCCCCCC(=O)O)C(=O)O)C(=O)N[C@@H](CCCCN)C(=O)N[C@H](C(=O)N[C@@H](CC(C)C)C(=O)N[C@@H](CC(C)C)C(=O)N[C@@H](CCC(=O)O)C(=O)N[C@@H](CCC(N)=O)C(=O)N[C@@H](CCC(=O)O)C(=O)N[C@@H](CCCCN)C(=O)N[C@@H](CCC(N)=O)C(=O)N[C@@H](CCCCN)C(=O)N[C@@H](CCCCN)C(=O)N[C@@H](CCC(N)=O)C(=O)N[C@@H](CCCNC(=N)N)C(=O)N[C@@H](CCC(=O)O)C(=O)N[C@@H](CCC(N)=O)C(=O)N[C@@H](C)C(=O)N[C@@H](CCC(=O)O)C(=O)N[C@H](C(=O)N[C@@H](CC(N)=O)C(=O)N[C@@H](CCCCN)C(=O)N[C@@H](CCC(N)=O)C(=O)N[C@H](C(=O)N[C@@H](CC(C)C)C(=O)N[C@@H](C)C(=O)N[C@@H](CCC(N)=O)C(=O)N[C@H](C(N)=O)C(C)C)[C@@H](C)CC)[C@@H](C)O)[C@@H](C)CC)[C@@H](C)CC)C(C)C)C(C)C` [SEQ ID No. 149, reference compound] (H-IVLSLDVPIKLK([AEEA-AEEA-γGlu-C18 diacid])KILLEQEKQKKQREQAETNKQILAQV-NH2), for which the “major metabolic soft spot, in vitro” value in data set [1] is recorded as “N-terminus”. Moreover, the “major metabolic soft spot, in vivo” value in data set [2] is listed as “N-terminus”.
Take “NMeIVLSLDvPIKLK*KILLEQEKQKEQREQAETNAibQILAQV-NH2 [233]”: in data set [3], the percent remaining was determined as 99% remaining at 2 hours. Also, the not cleaved came to 106% remaining at 2 hours in data set [4] and 100% remaining at 2 hours in data set [5].
For the compound “Ac-IVLSLDvPIKLK*KILLEQEKQKAibQREQAETNAibQILAQV-NH2”, in data set [6], the not cleaved worked out at 95% remaining at 2 h.
Take “Ac-IVLSLDvPIKLK*KILLEQEKQKEQREQAETNAibQILAQV-NH2”: the percent remaining in data set [3] is recorded as 102% remaining at 2 hours. Further, the not cleaved in data set [4] and in data set [5] was 99% remaining at 2 hours each time.
